Usually pEC50 stands for the negative decadic logarithm of the EC50, by convention in mol/L.

Molecules are shown by their SMILES. pEC50: −log10 of the molar value. *1 amine or outer side, *2 acyl side, *3 side chain or, on linkers, in order; H or OH if unused. Where a SMILES comes first, the peptide text is derived from it. Bridges are numbered along the chain shown (N, C = ends). [ ]: non-standard residue; d: D form. The star is where a group is joined. C20 diacid = O=C(O)CCCCCCCCCCCCCCCCCCC(=O)*; γGlu = O=C(O)[C@H](CCC(=O)[*:2])N[*:1]; Hyp = O=C(O)[C@@H]1C[C@@H](O)CN1; NMeI = CC[C@H](C)[C@H](NC)C(=O)O; Orn = NCCC[C@H](N)C(=O)O; Sar = CNCC(=O)O

The values below come from patent publication US20210115104A1, “AMYLIN ANALOGUES” (Zealand Pharma A/S, priority 2015, published 2021).

The target in data set [1] is T1, human amylin receptor 3 (hAMYR3), hCTR2 co-expressed with hRAMP3 (Homo sapiens, UniProt O60896+P30988).
T1 construct: expressed in transfected cells
T1 sequence (P30988 25-474): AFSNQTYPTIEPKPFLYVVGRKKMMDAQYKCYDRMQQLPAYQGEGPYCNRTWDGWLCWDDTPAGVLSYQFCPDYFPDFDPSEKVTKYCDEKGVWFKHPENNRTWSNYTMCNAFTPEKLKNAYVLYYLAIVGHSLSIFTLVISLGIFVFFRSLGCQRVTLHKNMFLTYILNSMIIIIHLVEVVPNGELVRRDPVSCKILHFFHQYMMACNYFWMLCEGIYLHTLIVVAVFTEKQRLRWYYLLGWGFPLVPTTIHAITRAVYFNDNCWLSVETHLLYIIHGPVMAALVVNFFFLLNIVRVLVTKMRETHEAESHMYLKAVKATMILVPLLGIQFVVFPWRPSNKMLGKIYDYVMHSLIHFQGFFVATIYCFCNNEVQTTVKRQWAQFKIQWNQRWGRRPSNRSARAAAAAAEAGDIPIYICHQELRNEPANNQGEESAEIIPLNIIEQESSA
T1 sequence (O60896 24-148 partner): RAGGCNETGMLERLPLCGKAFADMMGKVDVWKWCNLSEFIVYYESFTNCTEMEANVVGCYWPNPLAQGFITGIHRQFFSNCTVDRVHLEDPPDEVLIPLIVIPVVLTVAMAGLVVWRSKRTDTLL
The experiment in a line: hAMYR3 cAMP assay (AlphaScreen) in COS7 cells. The data set is classed as cell-based. The settings on record: cAMP induction, COS7 cells expressing hAMYR3; Table 1; read-out: hAMYR3 EC50. The method, boiled down: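 EC50 values derive from 4PL curve fits of cAMP (AlphaScreen) in lysates of RAMP-naive COS7 cells stably carrying hCTR2 plus hRAMP3. Peptide dilution series were applied for 15 min at 37 °C in pH 7.4 Tyrode buffer containing 100 µM IBMX and 0.1% casein.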
(cAMP levels reflect the balance of adenylyl cyclase and phosphodiesterase activity.)

Data set [2] can be described thus: Assessment of physical stability (Thioflavin T fibrillation). The data set is classed as physicochemical. The settings on record: 1 mg/ml, 40° C., ThT; for Fibrillation pH 4.0 (Ac): 50 mM acetate buffer pH 4.0, 96 hours; for Fibrillation pH 7.0 (His): 50 mM histidine buffer pH 7.0, 96 hours; for Fibrillation pH 7.0 (Phos.): 50 mM phosphate buffer pH 7.0, 96 hours. Set-up: key: FND = fibrillation not detected; FD = fibrillation detected. The gist of the method: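 Fibrillation lag-time, in hours, taken where regressions of the initial stable phase and the growth phase intersect. ThT (40 μM) fluorescence monitored at 40 °C for 96 h, 10-min reads each preceded by 300 s mixing. Peptide at 1 mg/ml in 50 mM buffers: phosphate or histidine pH 7.0, acetate pH 4.0.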

The nature of data set [3]: Assessment of chemical stability (RP-HPLC normalized purity). In kind it is physicochemical. The settings on record: 7 days, 40° C., Table 1; for Normalized purity after 7 days, 40° C., pH 4: pH 4, 0.2 mg/ml; for Normalized purity after 7 days, 40° C., pH 6: pH 6, 0.2 mg/ml; for Normalized purity after 7 days, 40° C., pH 7.5: pH 7.5, 0.2 mg/ml; for Normalized purity after 7 days, 40° C., pH 9: pH 9, 0.2 mg/ml. The method, boiled down:
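Purity after 7 days at 40° C is expressed relative to T=0 (set to 100) for each pH. Samples at 0.2 mg/ml, pH 4, 6, 7.5 or 9, analyzed by RP-HPLC with UV 220 nm on C8 (ammonium formate) or C18 (TFA) gradients.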

A short description of data set [4]: Pharmacokinetic (PK) profiling in rats. Set-up: CI/F (apparent clearance values): unit not given here. The settings on record: Sprague Dawley male rats, single sc 30 nmol/kg. In kind it is in vivo, rat. The method, then:
Sprague Dawley male rats were given a single subcutaneous (sc) bolus of each peptide to be tested, as specified below. 30 nmol/kg doses of compound were administered. Blood samples were drawn from the tail vein prior to dosing and at 24, 48, 72, 96 and 168 hours after dosing. Blood samples were taken from two rats at each time point, and only 2 blood samples were drawn from each rat, i.e. […] were used for each compound. The rats were euthanized immediately after the last blood sampling by concussion and cervical dislocation.
The dosing vehicle used for each test peptide was a mannitol-containing histidine buffer (pH 7.0). Plasma samples were analyzed after precipitation with ethanol by liquid chromatography mass spectrometry (LC-MS/MS). Mean plasma concentrations were used for calculation of the pharmacokinetic parameters using the non-compartmental approach in Phoenix WinNonlin 6.3.
Plasma terminal elimination half-life (t1/2) was determined as ln(2)/λz, where λz is the magnitude of the slope of the log linear regression of the log concentration versus time profile during the terminal phase. Apparent clearance (CL/F) was determined as dose/AUCinf (sc), where AUCinf is the area under the plasma concentration vs. time curve extrapolated to infinity (AUCinf=AUClast+Clast/λz, where Clast is the last observed plasma concentration).

The target of data set [5] is T2, human calcitonin receptor (hCTR2) (Homo sapiens, UniProt P30988).
T2 construct: expressed in transfected cells
T2 sequence (P30988 25-474): T1 sequence (P30988 25-474)
The experiment in a line: hCTR2 cAMP assay (AlphaScreen) in COS7 cells. The settings on record: cAMP induction, COS7 cells expressing hCTR2; Table 1; read-out: hCTR2 EC50. The data set is classed as cell-based. The gist of the method:
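cAMP induction, read by AlphaScreen after lysis, gives EC50 values via 4PL curve fitting. Peptides were applied at rising concentrations for 15 min at 37 °C, with IBMX and 0.1% casein in HEPES-buffered Tyrode pH 7.4, to COS7 cells (no endogenous RAMPs) stably expressing human CTR2.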

As to `CC[C@H](C)[C@@H](C(=O)N[C@@H](CC(C)C)C(=O)N[C@@H](CO)C(=O)N[C@@H](CO)C(=O)N[C@H](C(=O)N[C@@H](CCC(=O)O)C(=O)N[C@H](C(=O)NCC(=O)N[C@@H](CO)C(=O)N[C@@H](CCCN)C(=O)N[C@H](C(=O)N1C[C@H](O)C[C@H]1C(N)=O)[C@@H](C)O)C(C)C)[C@@H](C)O)N(C)C(=O)[C@H](C)NC(=O)CN(C)C(=O)[C@H](Cc1ccccc1)NC(=O)[C@H](CO)NC(=O)[C@H](CO)NC(=O)[C@H](CCCNC(=N)N)NC(=O)[C@@H](NC(=O)[C@H](CC(C)C)NC(=O)[C@H](Cc1ccccc1)NC(=O)[C@H](Cc1c[nH]cn1)NC(=O)[C@H](C)NC(=O)[C@H](CC(C)C)NC(=O)[C@H](CCCNC(=N)N)NC(=O)[C@H](CCC(=O)O)NC(=O)[C@@H](NC(=O)[C@H](C)NC(=O)[C@@H]1CSSC[C@H](NC(=O)[C@H](CCCNC(=N)N)NC(=O)CC[C@H](NC(=O)CCCCCCCCCCCCCCCCCCC(=O)O)C(=O)O)C(=O)NCC(=O)N[C@@H]([C@@H](C)O)C(=O)N[C@@H](C)C(=O)N[C@@H]([C@@H](C)O)C(=O)N1)[C@@H](C)O)[C@@H](C)O` [Compound 11, [19CD]-isoGlu-R-C( )-GTAT-C( )-ATERLAHFLTRSSF-Gly(Me)-A-Ile(Me)-LSSTEVGS-Orn-T-Hyp-NH2] ({C20 diacid-γGlu}-RCGTATCATERLAHFLTRSSF[Sar]A[NMeI]LSSTEVGS[Orn]T[Hyp]-NH2; disulfide 2-7), the negative-log EC50 (pEC50) in data set [1] is 9.70. Besides, in data set [2], the “Fibrillation pH 4.0 (Ac)” value is “FND”, the “Fibrillation pH 7.0 (His)” value is listed as “FD” and the “Fibrillation pH 7.0 (Phos.)” value was “FD”. For the same compound, in data set [3], the “Normalized purity after 7 days, 40° C., pH 4” value (shortened to “Normalized purity … pH 4”) is listed as “A (A = >90%)”; the “Normalized purity after 7 days, 40° C., pH 6” value (from here on “Normalized purity … pH 6”) is “B (B = 70-90%)”; the “Normalized purity after 7 days, 40° C., pH 7.5” value (“Normalized purity … pH 7.5” for short) was “A (A = >90%)”; the “Normalized purity after 7 days, 40° C., pH 9” value (shortened to “Normalized purity … pH 9”) is reported as “B (B = 70-90%)”. Further, the “CI/F (apparent clearance values)” value in data set [4] was 0.0118.

For the compound `CC[C@H](C)[C@@H](C(=O)N[C@@H](CC(C)C)C(=O)N[C@@H](CO)C(=O)N[C@@H](CO)C(=O)N[C@H](C(=O)N[C@@H](CCC(=O)O)C(=O)N[C@H](C(=O)NCC(=O)N[C@@H](CO)C(=O)N[C@@H](CO)C(=O)N[C@H](C(=O)N1C[C@H](O)C[C@H]1C(N)=O)[C@@H](C)O)C(C)C)[C@@H](C)O)N(C)C(=O)[C@H](C)NC(=O)CN(C)C(=O)[C@H](Cc1ccccc1)NC(=O)[C@H](CO)NC(=O)[C@H](CO)NC(=O)[C@H](CCCNC(=N)N)NC(=O)[C@@H](NC(=O)[C@H](CC(C)C)NC(=O)[C@H](Cc1ccccc1)NC(=O)[C@H](Cc1c[nH]cn1)NC(=O)[C@H](C)NC(=O)[C@H](CC(C)C)NC(=O)[C@H](CCCNC(=N)N)NC(=O)[C@H](CCC(=O)O)NC(=O)[C@@H](NC(=O)[C@H](C)NC(=O)[C@@H]1CSSC[C@H](NC(=O)[C@H](CCCNC(=N)N)NC(=O)CC[C@H](NC(=O)CCCCCCCCCCCCCCCCCCC(=O)O)C(=O)O)C(=O)NCC(=O)N[C@@H]([C@@H](C)O)C(=O)N[C@@H](C)C(=O)N[C@@H]([C@@H](C)O)C(=O)N1)[C@@H](C)O)[C@@H](C)O` [Compound 9, [19CD]-isoGlu-R-C( )-GTAT-C( )-ATERLAHFLTRSSF-Gly(Me)-A-Ile(Me)-LSSTEVGSST-Hyp-NH2] ({C20 diacid-γGlu}-RCGTATCATERLAHFLTRSSF[Sar]A[NMeI]LSSTEVGSST[Hyp]-NH2; disulfide 2-7), the pEC50 in data set [5] was 10.00. Besides, in data set [2], the “Fibrillation pH 4.0 (Ac)” value was “FND”, the “Fibrillation pH 7.0 (His)” value is listed as “FD” and the “Fibrillation pH 7.0 (Phos.)” value is given as “FD”. In addition, in data set [3], the “Normalized purity … pH 4” value was “A (A = >90%)”; the “Normalized purity … pH 6” value is “B (B = 70-90%)”; the “Normalized purity … pH 7.5” value is listed as “B (B = 70-90%)”; the “Normalized purity … pH 9” value is “B (B = 70-90%)”. Also, the “CI/F (apparent clearance values)” value in data set [4] was determined as 0.0096.

For `CC[C@H](C)[C@@H](C(=O)N[C@@H](CC(C)C)C(=O)N[C@@H](CO)C(=O)N[C@@H](CO)C(=O)N[C@H](C(=O)N[C@@H](CCC(=O)O)C(=O)N[C@H](C(=O)NCC(=O)N[C@@H](CO)C(=O)NCC(=O)N[C@H](C(=O)N1C[C@H](O)C[C@H]1C(N)=O)[C@@H](C)O)C(C)C)[C@@H](C)O)N(C)C(=O)[C@H](C)NC(=O)CN(C)C(=O)[C@H](Cc1ccccc1)NC(=O)[C@H](CO)NC(=O)[C@H](CO)NC(=O)[C@H](CCCNC(=N)N)NC(=O)[C@@H](NC(=O)[C@H](CC(C)C)NC(=O)[C@H](Cc1ccccc1)NC(=O)[C@H](Cc1c[nH]cn1)NC(=O)[C@H](C)NC(=O)[C@H](CC(C)C)NC(=O)[C@H](CCCNC(=N)N)NC(=O)[C@H](CCC(=O)O)NC(=O)[C@@H](NC(=O)[C@H](C)NC(=O)[C@@H]1CSSC[C@H](NC(=O)[C@H](CCCNC(=N)N)NC(=O)CC[C@H](NC(=O)CCCCCCCCCCCCCCCCCCC(=O)O)C(=O)O)C(=O)NCC(=O)N[C@@H]([C@@H](C)O)C(=O)N[C@@H](C)C(=O)N[C@@H]([C@@H](C)O)C(=O)N1)[C@@H](C)O)[C@@H](C)O` [Compound 13, [19CD]-isoGlu-R-C( )-GTAT-C( )-ATERLAHFLTRSSF-Gly(Me)-A-Ile(Me)-LSSTEVGSGT-Hyp-NH2] ({C20 diacid-γGlu}-RCGTATCATERLAHFLTRSSF[Sar]A[NMeI]LSSTEVGSGT[Hyp]-NH2; disulfide 2-7), the pEC50 in data set [1] is 9.42. Further, in data set [2], the “Fibrillation pH 4.0 (Ac)” value is listed as “FND”, the “Fibrillation pH 7.0 (His)” value was “FD” and the “Fibrillation pH 7.0 (Phos.)” value is given as “FD”. In addition, in data set [3], the “Normalized purity … pH 4” value is recorded as “A (A = >90%)”; the “Normalized purity … pH 6” value is given as “A (A = >90%)”; the “Normalized purity … pH 7.5” value is “A (A = >90%)”; the “Normalized purity … pH 9” value is “A (A = >90%)”. Besides, the “CI/F (apparent clearance values)” value in data set [4] amounted to 0.0106.
